Literature values in patent US20150082465A1, “System and Method for Whole-Animal High-Throughput Compound Screening” (System959, LLC, priority 2013, published 2015).

Test system: C. elegans
Details: by antagonizing egl-19, an L-type calcium channel

Compound: CCOC(=O)C1=C(C)NC(C)=C(C(=O)OCC)C1c1c(F)c(F)c(F)c(F)c1F [Nemadipine]
- growth of C. elegans: inhibit the growth
